Tests used:
[1] = system: post-operative delirium model rats; assay: Trace memory conditioning test (trace memory test and context memory test) in aged post-operative delirium model rats; type: in vivo, rat; details: SD male elderly rats with laparotomy, 10 mg/kg intraperitoneally immediately after surgery, vs laparotomy+solvent
Description: (§1) Forty (40) SD male elderly rats of 19 to 24 months of age were randomly divided into a control group, an ALLO administration group, a laparotomy+solvent administration group, and a laparotomy+ALLO administration group by 10 rats.
Rats in the laparotomy+solvent administration group and the laparotomy+ALLO administration group were anesthetized with 1.5 to 2.0% isoflurane, and then underwent a median incision of 2 cm in the abdomen. The small intestine was pulled out by about 5 cm from the laparotomy site and extended with a finger for 3 minutes. Next, the abdomen was closed, and local infiltration anesthesia was applied to the wound with 0.2% ropivacaine for post-operative pain. To rats in the laparotomy+ALLO administration group, 10 mg/kg of brexanolone was intraperitoneally administered immediately after surgery. To rats in the laparotomy+solvent administration group, only the same amount of solvent was administered instead of brexanolone. […]
Twelve (12) hours after acquisition of memory of stimulation, a “trace memory test” was performed. Specifically, “only sound stimulation” was performed under different gauges, and freezing behavior at that time was measured.
Finally, 4 hours after the trace memory test, rats were placed under a cage similar to the initial memory acquisition cage and freezing behavior of the rats without stimulation was measured as a “context memory test”.

IL-1β mRNA = IL-1β mRNA expression in the hippocampus by RT-PCR after laparotomy; type: in vivo, rat; details: Example 4, 12 hours after surgery, vs laparotomy+solvent, FIG. 5
Description: as §1
Rats in the laparotomy group were subjected to laparotomy in the same manner as in Example 1. To rats in the laparotomy+ALLO administration group, 10 mg/kg of brexanolone was intraperitoneally administered immediately after surgery. To rats in the laparotomy+solvent administration group, only the same amount of solvent was administered instead of brexanolone.
Rats in the control group and the ALLO administration group were not subjected to laparotomy, and only subjected to anesthesia with isoflurane and local infiltration anesthesia with ropivacaine in the same manner. […]
Twelve (12) hours after surgery, the hippocampus, which is considered to be strongly related to an onset of post-operative delirium, was extracted, and mRNA expression levels of IL-1β and TNFα, which are inflammatory cytokines suspected to be related to an onset mechanism of post-operative delirium, were measured by an RT-PCR method. After the trace memory conditioning test of Example 1, the hippocampus was extracted at 48 hours after the laparotomy, and expression levels of IL-1 and TNFα in the hippocampus sample were measured by an ELISA method. […]

Structure (SMILES) | attention (proportion of freezing behavior time, trace memory test) ([1]; FIG. 1(1)) | cognitive abilities (freezing behavior, context memory test) ([1]; FIG. 1(2)) | relative expression level of IL-1β mRNA in the hippocampus (IL-1β mRNA; 10 mg/kg intraperitoneally 30 minutes before anesthesia) | relative expression level of IL-1β mRNA in the hippocampus (IL-1β mRNA; 3 mg/kg orally 30 minutes before anesthesia)
CC(=O)[C@H]1CC[C@H]2[C@@H]3CC[C@H]4C[C@H](O)CC[C@]4(C)[C@H]3CC[C@]12C [brexanolone] | significantly higher | significantly higher | significantly reduce | 
C[C@@]1(O)CC[C@H]2[C@H](CC[C@@H]3[C@@H]2CC[C@]2(C)[C@@H](C(=O)Cn4cc(C#N)cn4)CC[C@@H]32)C1 [zuranolone] |  |  |  | significantly reduce

Reference: patent US20260144802A1, “POST-OPERATIVE DELIRIUM SUPPRESSANT” (priority 2022, published 2026)
